Here are results for one compound from publication PMC7062757 (2020).

Test [1] deals with M2 x3 array (5 nt) (Mango II x3, M2x3) (RNA, aptamer) GGCACGUACGAAGGAGAGGAGAGGAAGAGGAGAGUACGUGCUUUUUGGACAUGCCGAAGGAGAGGAGAGGAAGAGGAGAGGCAUGUCCUUUUUGGGUGCAUCGAAGGAGAGGAGAGGAAGAGGAGAGAUGCACCC
Put plainly: fluorescence titration, Hill fit. The following applies: 140 mM KCl, 1 mM MgCl2; 10 mM sodium phosphate, pH 7.2, 22 °C; 40 nM RNA; apparent; per site.

For test [2], the system named is Mango II (RNA, aptamer) GGCACGUACGAAGGAGAGGAGAGGAAGAGGAGAGUACGUGC
Put plainly: fluorescence titration, Hill fit. The note with it: 140 mM KCl, 1 mM MgCl2; 10 mM sodium phosphate, pH 7.2, 22 °C; 40 nM RNA; apparent; per site.

As to `CN1C=CC(=Cc2sc3ccccc3[n+]2CC(=O)NCCOCCOCCOCCNC(=O)CCCC[C@@H]2SC[C@@H]3NC(=O)N[C@@H]32)c2ccccc21`, the “Kd,app” value in test [1] amounted to 0.08 ± 0.006 µM; in test [2], 0.03 ± 0.004 µM.
